Assay results: US9187472B2 (AbbVie Inc., priority 2012, dated 2015)

Assays:
[1] = biological target: NAMPT (human, recombinant, C-terminally His-tagged) (Homo sapiens, UniProt P43490); assay: Time-Resolved Fluorescence Resonance Energy Transfer (TR-FRET) Binding Assay of NAMPT; details: without substrates; 6.8 nM NAMPT, 200 nM probe, 3 hours equilibration
Procedure: Determination of the utility of compounds having Formula (I) as binders to and inhibitors of NAMPT was performed using Time-Resolved Fluorescence Resonance Energy Transfer (TR-FRET) binding assays.
Time-Resolved Fluorescence Resonance Energy Transfer (TR-FRET) Binding Assay of NAMPT
Test compounds were serially diluted (typically 11 half log dilutions) in neat DMSO to 50× final concentrations prior to dilution with assay buffer (50 mM HEPES (NaOH), pH 7.5, 100 mM NaCl, 10 mM MgCl2, 1 mM DTT, 1% Glycerol) to 3× and 6% DMSO. Six μL were transferred to 384-well low-volume plates (Owens Corning #3673). To this, […] of a 1.5× solution containing enzyme, probe and antibody were added. Final concentrations in the 18 μL, reactions were 1× assay buffer, 2% DMSO, 6.8 nM NAMPT (human, recombinant, C-terminally His-tagged), 200 nM probe (a potent nicotinamide-competitive inhibitor conjugated to Oregon Green 488) and 1 nM Tb-anti-His antibody (Invitrogen # PV5895). Reactions were equilibrated at room temperature for 3 hours prior to reading on an Envision multi-label plate reader (Perkin Elmer; Ex=337 nm, Em=520 and 495 nm). Time-resolved FRET ratios (Em520/Em495) were normalized to controls, plotted as a function of compound concentration and fit with the four-parameter logistic equation to determine IC50s.

NAMPT = NAMPT (Homo sapiens, UniProt P43490); assay: TR-FRET Binding Assay of NAMPT with PRPP; details: with 200 μM PRPP and 2.5 mM ATP; 2 nM NAMPT, 2 nM probe, 16 hours equilibration
NAMPT, sequence (P43490 whole entry): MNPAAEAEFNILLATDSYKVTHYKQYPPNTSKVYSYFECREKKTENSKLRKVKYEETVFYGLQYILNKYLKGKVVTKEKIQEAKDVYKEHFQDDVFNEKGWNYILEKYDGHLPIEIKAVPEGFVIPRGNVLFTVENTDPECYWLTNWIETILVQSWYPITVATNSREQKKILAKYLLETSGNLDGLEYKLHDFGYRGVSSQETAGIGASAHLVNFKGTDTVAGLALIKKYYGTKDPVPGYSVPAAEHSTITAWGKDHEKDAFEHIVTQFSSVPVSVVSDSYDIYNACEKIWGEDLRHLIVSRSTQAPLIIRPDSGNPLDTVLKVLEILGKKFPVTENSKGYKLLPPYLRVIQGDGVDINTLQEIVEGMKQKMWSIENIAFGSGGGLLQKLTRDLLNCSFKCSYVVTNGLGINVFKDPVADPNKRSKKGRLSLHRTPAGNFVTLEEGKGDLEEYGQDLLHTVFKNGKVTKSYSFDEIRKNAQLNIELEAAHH
Procedure: Time-Resolved Fluorescence Resonance Energy Transfer (TR-FRET) Binding Assay of NAMPT with PRPP
Compound handling and data processing were identical to the assay in the absence of substrates (above). Final concentrations were 1× assay buffer, 2% DMSO, 2 nM NAMPT, 2 nM probe, 1 nM Tb-anti-His antibody (Invitrogen # PV5895), 200 μM PRPP and 2.5 mM ATP. Reactions were equilibrated for 16 hours prior to measurement to allow for potential enzymatic modification of test compounds.

PC3 cells = assay: NAMPT Cell Proliferation Assay; type: cell-based; details: Homo sapiens, PC-3, 120 h, 5 days incubation, cell viability by Cell Titer Glo
In short: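 Following overnight attachment in RPMI with 10% heat-inactivated FBS, PC3 cells at 500 per well receive compounds spanning 10 μM down to 1×10^−5 μM. Growth is assessed by luminescent viability read after 5 days.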

NAMPT (human, recombinant, C-terminally His-tagged), sequence (P43490 whole entry): as above

Row | Structure (SMILES) | IC50 [1] [µM] | IC50 (NAMPT) [µM] | IC50 (PC3 cells) [µM]
1 | CC(=O)Nc1ccc(NC(=O)Nc2ccc3nccn3c2)cc1 [Example 27] | 0.756 | 0.000658 | 7.54
2 | O=C(Nc1ccc(C2=CCN(C(=O)CC3CCOC3)CC2)cc1)Nc1ccc2nccn2c1 (stereo not drawn) [Example 28, 1-imidazo[1,2-a]pyridin-6-yl-3-{4-[1-(tetrahydrofuran-3-ylacetyl)-1,2,3,6-tetrahydropyridin-4-yl]phenyl}urea] | 0.152 | 0.00019 | 0.0142
3 | O=C(Nc1ccc(C2=CCN(C(=O)CN3CCOCC3)CC2)cc1)Nc1ccc2nccn2c1 [Example 30, 1-imidazo[1,2-a]pyridin-6-yl-3-{4-[1-(morpholin-4-ylacetyl)-1,2,3,6-tetrahydropyridin-4-yl]phenyl}urea] | 1.18 | 0.000785 | 0.0384
4 | CCOCC(=O)N1CC=C(c2ccc(NC(=O)Nc3ccc4nccn4c3)cc2)CC1 [Example 31, 1-{4-[1-(ethoxyacetyl)-1,2,3,6-tetrahydropyridin-4-yl]phenyl}-3-imidazo[1,2-a]pyridin-6-ylurea] | 0.739 | 0.000311 | 0.107
5 | COCCOCC(=O)N1CC=C(c2ccc(NC(=O)Nc3ccc4nccn4c3)cc2)CC1 [Example 32, 1-imidazo[1,2-a]pyridin-6-yl-3-(4-{1-[(2-methoxyethoxy)acetyl]-1,2,3,6-tetrahydropyridin-4-yl}phenyl)urea] | 0.906 | 0.000169 | 0.284
6 | O=C(Nc1ccc(C2=CCN(C(=O)C3CCCO3)CC2)cc1)Nc1ccc2nccn2c1 (stereo not drawn) [Example 33, 1-imidazo[1,2-a]pyridin-6-yl-3-{4-[1-(tetrahydrofuran-2-ylcarbonyl)-1,2,3,6-tetrahydropyridin-4-yl]phenyl}urea] | 0.369 | 0.000553 | 0.0673
7 | O=C(Nc1ccc(C2=CCN(C(=O)C3CCOCC3)CC2)cc1)Nc1ccc2nccn2c1 [Example 34, 1-imidazo[1,2-a]pyridin-6-yl-3-{4-[1-(tetrahydro-2H-pyran-4-ylcarbonyl)-1,2,3,6-tetrahydropyridin-4-yl]phenyl}urea] | 0.208 | 0.000377 | 0.0383
8 | CN1CCC(C(=O)N2CC=C(c3ccc(NC(=O)Nc4ccc5nccn5c4)cc3)CC2)CC1 [Example 36, 1-imidazo[1,2-a]pyridin-6-yl-3-(4-{1-[(1-methylpiperidin-4-yl)carbonyl]-1,2,3,6-tetrahydropyridin-4-yl}phenyl)urea] | 0.356 | 0.000444 | 0.0514
9 | CC(C)C(=O)N1CC=C(c2ccc(NC(=O)Nc3ccc4nccn4c3)cc2)CC1 [Example 38, 1-imidazo[1,2-a]pyridin-6-yl-3-{4-[1-(2-methylpropanoyl)-1,2,3,6-tetrahydropyridin-4-yl]phenyl}urea] | 0.243 | 0.000266 | 0.0659
10 | CCOCC(=O)Nc1ccc(NC(=O)Nc2ccc3nccn3c2)cc1 [Example 39, 2-ethoxy-N-{4-[(imidazo[1,2-a]pyridin-6-ylcarbamoyl)amino]phenyl}acetamide] | 0.814 | 0.00026 | 7.28
11 | O=C(CC1CCOCC1)Nc1ccc(NC(=O)Nc2ccc3nccn3c2)cc1 [Example 40] | 0.0409 | 0.000217 | 0.0708
12 | COCCOCC(=O)Nc1ccc(NC(=O)Nc2ccc3nccn3c2)cc1 [Example 42, N-{4-[(imidazo[1,2-a]pyridin-6-ylcarbamoyl)amino]phenyl}-2-(2-methoxyethoxy)acetamide] | 0.697 | 0.000381 | 1.59
13 | CCCC(=O)Nc1ccc(NC(=O)Nc2ccc3nccn3c2)cc1 [Example 44] | 0.396 | 0.000496 | 1.58
14 | O=C(CCC(F)(F)F)Nc1ccc(NC(=O)Nc2ccc3nccn3c2)cc1 [Example 45, 4,4,4-trifluoro-N-{4-[(imidazo[1,2-a]pyridin-6-ylcarbamoyl)amino]phenyl}butanamide] | 0.879 | 0.00119 | 2.07
15 | O=C(Nc1ccc(NC(=O)C2CCOCC2)cc1)Nc1ccc2nccn2c1 [Example 46] | 0.773 | 0.000318 | 6.28
16 | O=C(Nc1ccc(NC(=O)C2COCCO2)cc1)Nc1ccc2nccn2c1 (stereo not drawn) [Example 50] | 1.64 | 0.000817 | 6.14
17 | CC(C)Cn1cc(-c2ccc(NC(=O)Nc3ccc4nccn4c3)cc2)cn1 [Example 51, 1-imidazo[1,2-a]pyridin-6-yl-3-{4-[1-(2-methylpropyl)-1H-pyrazol-4-yl]phenyl}urea] | 0.264 | 0.000524 | 0.083
18 | CC(C)CC(=O)N(Cc1ccc(C#N)cc1)c1ncc(C(=O)Nc2ccc3nccn3c2)s1 [Example 53, 2-[(4-cyanobenzyl)(3-methylbutanoyl)amino]-N-(imidazo[1,2-a]pyridin-6-yl)-1,3-thiazole-5-carboxamide] | 4.45 | 0.0144 | 3.3
19 | COCCC(=O)N(Cc1ccc(C#N)cc1)c1ncc(C(=O)Nc2ccc3nccn3c2)s1 [Example 54, 2-[(4-cyanobenzyl)(3-methoxypropanoyl)amino]-N-(imidazo[1,2-a]pyridin-6-yl)-1,3-thiazole-5-carboxamide] | 0.363 | 0.00255 | 0.303
20 | CC(C)CC(=O)N(Cc1ccc(C#N)cc1)c1ncc(C(=O)NCc2ccc3nccn3c2)s1 [Example 55, 2-[(4-cyanobenzyl)(3-methylbutanoyl)amino]-N-(imidazo[1,2-a]pyridin-6-ylmethyl)-1,3-thiazole-5-carboxamide] | 0.364 | 0.00137 | 0.0146
21 | COCCC(=O)N(Cc1ccc(C#N)cc1)c1ncc(C(=O)NCc2ccc3nccn3c2)s1 [Example 56, 2-[(4-cyanobenzyl)(3-methoxypropanoyl)amino]-N-(imidazo[1,2-a]pyridin-6-ylmethyl)-1,3-thiazole-5-carboxamide] | 0.158 | 0.00107 | 0.00886

Other lines, results leading:

Row | IC50 [1] [µM] | IC50 (NAMPT) [µM] | IC50 (PC3 cells) [µM] | Structure (SMILES)
22 | 0.168 | 0.000236 | 0.0439 | CC(C)(O)C(=O)N1CC=C(c2ccc(NC(=O)Nc3ccc4nccn4c3)cc2)CC1 [Example 29, 1-{4-[1-(2-hydroxy-2-methylpropanoyl)-1,2,3,6-tetrahydropyridin-4-yl]phenyl}-3-imidazo[1,2-a]pyridin-6-ylurea]
23 | 0.387 | 0.000801 | 0.0586 | O=C(Nc1ccc(C2=CCN(C(=O)C3COCCO3)CC2)cc1)Nc1ccc2nccn2c1 (stereo not drawn) [Example 35, 1-{4-[1-(1,4-dioxan-2-ylcarbonyl)-1,2,3,6-tetrahydropyridin-4-yl]phenyl}-3-imidazo[1,2-a]pyridin-6-ylurea]
24 | 0.129 | 0.000309 | 0.0347 | O=C(Nc1ccc(C2=CCN(C(=O)C3CCS(=O)(=O)CC3)CC2)cc1)Nc1ccc2nccn2c1 [Example 37, 1-(4-{1-[(1,1-dioxidotetrahydro-2H-thiopyran-4-yl)carbonyl]-1,2,3,6-tetrahydropyridin-4-yl}phenyl)-3-imidazo[1,2-a]pyridin-6-ylurea]
25 | 0.294 | 0.00115 | 0.138 | O=C(CN1CCOCC1)Nc1ccc(NC(=O)Nc2ccc3nccn3c2)cc1 [Example 41]
26 | 4.35 | 0.000169 | 7.45 | COCC(C)C(=O)Nc1ccc(NC(=O)Nc2ccc3nccn3c2)cc1 (stereo not drawn) [Example 43]
27 | 0.0575 | 0.00062 | 0.0648 | CC(C)CCC(=O)Nc1ccc(NC(=O)Nc2ccc3nccn3c2)cc1 [Example 47, N-{4-[(imidazo[1,2-a]pyridin-6-ylcarbamoyl)amino]phenyl}-4-methylpentanamide]
28 | > 10 | 0.000169 | 5.32 | CN1CCC(C(=O)Nc2ccc(NC(=O)Nc3ccc4nccn4c3)cc2)CC1 [Example 48]
29 | 0.442 | 0.000317 | 7.04 | O=C(Nc1ccc(NC(=O)C2CCS(=O)(=O)CC2)cc1)Nc1ccc2nccn2c1 [Example 49]
30 | 0.0186 | 0.00579 | 0.00407 | O=C(CC1CCCC1)Nc1ccc(C(=O)NCc2ccc3nccn3c2)cc1 [Example 52, 4-[(cyclopentylacetyl)amino]-N-(imidazo[1,2-a]pyridin-6-ylmethyl)benzamide]
